Data taken from patent US20110172244A1 (IRM LLC, priority 2008, published 2011).

Target: T1, human GPR119 (Homo sapiens, UniProt Q8TDV5)
T1 construct: expressed in transfected cells
T1 sequence (Q8TDV5 1-335): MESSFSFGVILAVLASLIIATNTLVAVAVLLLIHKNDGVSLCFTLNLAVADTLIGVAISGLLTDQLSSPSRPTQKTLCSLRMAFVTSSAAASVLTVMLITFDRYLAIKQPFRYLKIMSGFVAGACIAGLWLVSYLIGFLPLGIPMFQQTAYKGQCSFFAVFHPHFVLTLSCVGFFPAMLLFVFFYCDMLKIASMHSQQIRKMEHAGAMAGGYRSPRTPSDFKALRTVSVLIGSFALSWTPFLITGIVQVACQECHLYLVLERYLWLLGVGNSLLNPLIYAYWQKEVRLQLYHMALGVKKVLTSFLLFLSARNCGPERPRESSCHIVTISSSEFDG
Test: Cyclic AMP assay in stable cell line (Flp-In-CHO-hGPR119, HTRF)
Type: cell-based
Details: Flp-In-CHO-hGPR119 cells, cAMP HTRF, 1 mM IBMX, 30 minutes at 37° C.; read-out: CHO-GPR119-HTRF (3158) EC50
Procedure: Generation of Stable Cell Line
Flp-In-CHO cells (Invitrogen, Cat. #R758-07) are maintained in Ham's F12 medium supplemented with 10% fetal bovine serum, 1% antibiotic mixture and 2 mM L-glutamine. The cells are transfected with a DNA mixture containing human GPR119 in pcDNA5/FRT vector and the pOG44 vector (1:9) using Fugene6 (Roche), according to the manufacturer's instruction. After 48 hours, the medium is changed to medium supplemented with 400 μg/ml hygromycin B to initiate the selection of stably transfected cells.
Cyclic AMP Assay in Stable Cell Line
To test the activity of compounds of the invention, Flp-In-CHO-hGPR119 cells are harvested and resuspended in DMEM plus 3% lipid-depleted fetal bovine serum. Forth μl of cells are plated in 384 well plates at a density of 15,000 cells/well. IBMX (3-isobutyl-1-methyl-xanthine) is added to the cells to a final concentration of 1 mM, followed by the addition of 500 nl of the compound to be tested. The cells are incubated at 37° C. for 30 minutes. Equal volume (20 μl) of the HTRF reagents, anti-cAMP-Cryptate and cAMP-XL665, are added to the cells. The plates are incubated at room temperature for 1 hour and read on a HTRF reader according to the manufacturer's instruction.

Row | EC50 [nM] | SMILES
1 | 12 | O=C(c1[nH]c2ccc(F)cc2c1S(=O)(=O)c1ccc(Cl)cc1)N1CCC(Cc2ccccc2)CC1 [Example A1, (4-benzylpiperidin-1-yl)(3-(4-chlorophenylsulfonyl)-5-fluoro-1H-indol-2-yl)methanone]
2 | 7 | O=C(c1[nH]c2ccccc2c1S(=O)(=O)c1ccc(Cl)cc1)N1CCN(Cc2c(F)cccc2Cl)CC1 [Example A2, (4-(2-chloro-6-fluorobenzyl)piperazin-1-yl)(3-(4-chlorophenylsulfonyl)-1H-indol-2-yl)methanone]
3 | 9 | Cc1ccc(OC2CCN(C(=O)c3[nH]c4ccccc4c3S(=O)(=O)c3ccc(Cl)cc3)CC2)cc1 [Example A3, (3-(4-chlorophenylsulfonyl)-1H-indol-2-yl)(4-(p-tolyloxy)piperidin-1-yl)methanone]
4 | 10 | O=C(c1[nH]c2ccccc2c1S(=O)(=O)c1ccc(Cl)cc1)N1CCC(Oc2ccc(C(F)(F)F)cc2)CC1 [Example A4, (3-(4-chlorophenylsulfonyl)-1H-indol-2-yl)(4-(4-(trifluoromethyl)phenoxy)piperidin-1-yl)methanone]
5 | 17 | O=C(c1[nH]c2ccccc2c1S(=O)(=O)c1ccc(Cl)cc1)N1CCN(Cc2ccc(Cl)cc2)CC1 [Example A5, (4-(4-chlorobenzyl)piperazin-1-yl)(3-(4-chlorophenylsulfonyl)-1H-indol-2-yl)methanone]
6 | 18 | Cc1ccc(SC2CCN(C(=O)c3[nH]c4ccccc4c3S(=O)(=O)c3ccc(Cl)cc3)CC2)cc1 [Example A6, (3-(4-chlorophenylsulfonyl)-1H-indol-2-yl)(4-(p-tolylthio)piperidin-1-yl)methanone]
7 | 18 | O=C(c1[nH]c2ccccc2c1S(=O)(=O)c1ccc(Cl)cc1)N1CCC(CCc2ccccc2)CC1 [Example A7, (3-(4-chlorophenylsulfonyl)-1H-indol-2-yl)(4-phenethylpiperidin-1-yl)methanone]
8 | 32 | O=C(c1[nH]c2ccccc2c1S(=O)(=O)c1ccc(Cl)cc1)N1CCN(CC2CCCCC2)CC1 [Example A11, (3-(4-chlorophenylsulfonyl)-1H-indol-2-yl)(4-(cyclohexylmethyl)piperazin-1-yl)methanone]
9 | 40 | O=C(c1[nH]c2ccccc2c1S(=O)(=O)c1ccc(Cl)cc1)N1CCN(Cc2ccc3c(c2)OCO3)CC1 [Example A12, (4-(benzo[d][1,3]dioxol-5-ylmethyl)piperazin-1-yl)(3-(4-chlorophenylsulfonyl)-1H-indol-2-yl)methanone]
10 | 533 | CN(Cc1ccccc1)C1CCN(C(=O)c2[nH]c3ccccc3c2S(=O)(=O)c2ccc(Cl)cc2)CC1 [Example A19, (4-(benzyl(methyl)amino)piperidin-1-yl)(3-(4-chlorophenylsulfonyl)-1H-indol-2-yl)methanone]
11 | 192 | CN(CCOc1ccccc1)C(=O)c1[nH]c2ccccc2c1S(=O)(=O)c1ccc(Cl)cc1 [Example A20, 3-(4-chlorophenylsulfonyl)-N-methyl-N-(2-phenoxyethyl)-1H-indole-2-carboxamide]
12 | 435 | O=C(c1[nH]c2ccccc2c1S(=O)(=O)c1ccc(Cl)cc1)N1CCN(Cc2ccncc2)CC1 [Example A22, (3-(4-chlorophenylsulfonyl)-1H-indol-2-yl)(4-(pyridin-4-ylmethyl)piperazin-1-yl)methanone]
13 | 396 | O=C(NCCCCc1ccccc1)c1[nH]c2ccccc2c1S(=O)(=O)c1ccc(Cl)cc1 [Example A23, 3-(4-chlorophenylsulfonyl)-N-(4-phenylbutyl)-1H-indole-2-carboxamide]
14 | 574 | O=C(c1[nH]c2ccccc2c1S(=O)(=O)c1ccc(Cl)cc1)N1CCCCC1 [Example A24, (3-(4-chlorophenylsulfonyl)-1H-indol-2-yl)(piperidin-1-yl)methanone]
15 | 54 | O=C(c1oc2ccccc2c1S(=O)(=O)c1ccc(Cl)cc1)N1CCC(Oc2ccc(C(F)(F)F)cc2)CC1 [Example A29, (3-(4-Chlorophenylsulfonyl)benzofuran-2-yl)(4-(4-(trifluoromethyl)phenoxy)piperidin-1-yl)methanone]
16 | 187 | O=C(c1oc2ccccc2c1S(=O)(=O)c1ccc(Cl)cc1)N1CCN(Cc2ccccc2)CC1 [Example A30, (4-benzylpiperazin-1-yl)(3-(4-chlorophenylsulfonyl)benzofuran-2-yl)methanone]
17 | 22 | O=C(c1[nH]c2c(F)cccc2c1S(=O)(=O)c1ccc(Cl)cc1)N1CCC(Cc2ccccc2)CC1 [Example B1, (4-benzylpiperidin-1-yl)(3-(4-chlorophenylsulfonyl)-7-fluoro-1H-indol-2-yl)methanone]
18 | 210 | O=C(c1[nH]c2ccccc2c1S(=O)(=O)Cc1ccccc1)N1CCC(Cc2ccccc2)CC1 [Example B2, (4-benzylpiperidin-1-yl)(3-benzylsulfonyl-1H-indol-2-yl)methanone]
19 | 755 | O=C(c1[nH]c2ccccc2c1SC1CCCCC1)N1CCC(Cc2ccccc2)CC1 [Example B3, (4-benzylpiperidin-1-yl)(3-(cyclohexylthio)-1H-indol-2-yl)methanone]
20 | 149 | O=C(c1[nH]c2ccccc2c1S(=O)(=O)C1CCCCC1)N1CCC(Cc2ccccc2)CC1 [Example B4]
21 | 169 | Cn1c(C(=O)N2CCC(Cc3ccccc3)CC2)c(S(=O)(=O)c2ccc(Cl)cc2)c2ccccc21 [Example B5, (4-Benzylpiperidin-1-yl)(3-(4-chlorophenylsulfonyl)-1-methyl-1H-indol-2-yl)methanone]
22 | 42 | O=C(c1[nH]c2ccccc2c1S(=O)(=O)CCc1ccccc1)N1CCC(Cc2ccccc2)CC1 [Example B11, (4-benzylpiperidin-1-yl)(3-(phenethylsulfonyl)-1H-indol-2-yl)methanone]
23 | 454 | O=C(c1[nH]c2ccccc2c1Sc1ccccc1)N1CCC(Cc2ccccc2)CC1 [Example C1, (4-Benzylpiperidin-1-yl)(3-(phenylthio)-1H-indol-2-yl)methanone]
24 | 180 | O=C(c1[nH]c2ccccc2c1Sc1ccc(Cl)cc1)N1CCC(Cc2ccccc2)CC1 [Example C2, (4-benzylpiperidin-1-yl)(3-(4-chlorophenylthio)-1H-indol-2-yl)methanone]
